{
  "source": "ChEMBL document CHEMBL5523736",
  "about": "“The First Discovery of Marine Polyoxygenated Cembranolides as Potential Agents for the Treatment of Ulcerative Colitis” (J Med Chem, 2024)",
  "key": {"[1]": {"system": "RAW264.7", "test": "Antiinflammatory activity in mouse RAW264.7 cells assessed as inhibition of LPS-induced NO production incubated for 24 hrs", "type": "functional, cell-based", "conditions": "RAW264.7, 24 h"}, "[2]": {"system": "Mus musculus", "test": "Antiinflammatory activity against DSS-induced ulcerative colitis C57BL/6J mouse model assessed as reduction in inflammatory cell infiltration in colon at 15 mg/kg, po administered for 8 days by Hand E staining based histopathological analysis", "type": "functional, organism-based", "conditions": "time 8.0 day"}, "[3]": {"system": "Mus musculus", "test": "Antiinflammatory activity against DSS-induced ulcerative colitis C57BL/6J mouse model assessed as reduction in goblet cell loss in colon at 15 mg/kg, po administered for 8 days by alcian blue staining based analysis", "type": "functional, organism-based", "conditions": "time 8.0 day"}, "[4]": {"system": "Mus musculus", "test": "Effect on DSS-induced body weight loss in ulcerative colitis male C57BL/6J mouse model at 15 mg/kg, po administered for 8 days", "type": "functional, organism-based", "conditions": "time 8.0 day"}, "[5]": {"system": "Mus musculus", "test": "Antiinflammatory activity against DSS-induced ulcerative colitis C57BL/6J mouse model assessed as increase in CLAUDIN-1 protein level in colon at 15 mg/kg, po administered for 8 days by Western blot analysis", "type": "functional, organism-based", "conditions": "time 8.0 day"}, "[6]": {"system": "RAW264.7", "test": "Inhibition of NF-kappaB transcriptional activity in LPS-induced mouse RAW264.7 cells at 20 uM by luciferase based assay", "type": "cell-based"}, "[7]": {"system": "Mus musculus", "test": "Antiinflammatory activity against DSS-induced ulcerative colitis C57BL/6J mouse model assessed as reduction in intestinal epithelial destruction in colon at 15 mg/kg, po administered for 8 days by Hand E staining based histopathological analysis", "type": "functional, organism-based", "conditions": "time 8.0 day"}, "[8]": {"test": "Cytotoxicity against mouse RAW264.7 cells assessed as cell viability at 20 uM incubated for 24 hrs by CCK8 assay relative to control", "type": "toxicity, cell-based", "conditions": "read-out: Activity"}, "[9]": {"molecular_target": "Transcription factor p65 (Mus musculus) (UniProt Q04207)", "sequence (Q04207 whole entry)": "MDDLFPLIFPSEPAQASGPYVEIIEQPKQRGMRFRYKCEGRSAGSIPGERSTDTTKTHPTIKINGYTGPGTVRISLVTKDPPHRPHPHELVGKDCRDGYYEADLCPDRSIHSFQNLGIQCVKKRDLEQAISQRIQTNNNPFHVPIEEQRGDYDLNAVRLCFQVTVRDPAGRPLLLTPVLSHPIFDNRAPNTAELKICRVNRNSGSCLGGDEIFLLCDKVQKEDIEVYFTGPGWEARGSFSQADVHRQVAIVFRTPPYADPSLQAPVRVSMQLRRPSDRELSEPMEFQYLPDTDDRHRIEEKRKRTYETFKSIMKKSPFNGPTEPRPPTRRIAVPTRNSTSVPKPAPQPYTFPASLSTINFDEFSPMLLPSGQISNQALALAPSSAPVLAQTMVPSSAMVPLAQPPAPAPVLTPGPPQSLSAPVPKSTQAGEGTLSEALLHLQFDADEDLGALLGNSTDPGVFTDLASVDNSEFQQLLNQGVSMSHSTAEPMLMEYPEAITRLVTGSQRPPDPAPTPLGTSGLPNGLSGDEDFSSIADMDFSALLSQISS", "test": "Inhibition of p65 activation in LPS-induced mouse RAW264.7 cells at 20 uM by Western blot analysis", "type": "cell-based"}, "[10]": {"system": "RAW264.7", "test": "Antiinflammatory activity in LPS-induced mouse RAW264.7 cells assessed as reduction in TNF-alpha mRNA expression level at 20 uM by qRT-PCR analysis", "type": "functional, cell-based"}, "[11]": {"system": "Mus musculus", "test": "Antiinflammatory activity against DSS-induced ulcerative colitis C57BL/6J mouse model assessed as reduction in H and E histopathological score at 15 mg/kg, po administered for 8 days by H and E staining based analysis", "type": "functional, organism-based", "conditions": "time 8.0 day"}, "[12]": {"system": "RAW264.7", "test": "Inhibition of ERK phosphorylation in LPS-induced mouse RAW264.7 cells at 20 uM by Western blot analysis", "type": "cell-based"}, "[13]": {"system": "RAW264.7", "test": "Antiinflammatory activity in mouse RAW264.7 cells assessed as inhibition of LPS-induced NO production at 20 uM incubated for 24 hrs relative to control", "type": "functional"}, "[14]": {"system": "RAW264.7", "test": "Antiinflammatory activity in LPS-induced mouse RAW264.7 cells assessed as reduction in IL-1beta mRNA expression level at 20 uM by qRT-PCR analysis", "type": "functional, cell-based"}, "[15]": {"system": "Mus musculus", "test": "Antiinflammatory activity against DSS-induced ulcerative colitis C57BL/6J mouse model assessed as reduction in iNOS mRNA expression level in colon at 15 mg/kg, po administered for 8 days by qRT-PCR analysis", "type": "functional, organism-based", "conditions": "time 8.0 day"}, "[16]": {"system": "RAW264.7", "test": "Antiinflammatory activity in LPS-induced mouse RAW264.7 cells assessed as inhibition of TNF-alpha production at 20 uM by ELISA", "type": "functional, cell-based"}, "[17]": {"system": "RAW264.7", "test": "Antiinflammatory activity in LPS-induced mouse RAW264.7 cells assessed as reduction in Cxcl10 gene expression by heat map analysis", "type": "functional, cell-based"}, "[18]": {"system": "RAW264.7", "test": "Antiinflammatory activity in LPS-induced mouse RAW264.7 cells assessed as reduction in IL-1beta gene expression by heat map analysis", "type": "functional, cell-based"}, "[19]": {"system": "RAW264.7", "test": "Inhibition of P38 phosphorylation in LPS-induced mouse RAW264.7 cells at 20 uM by Western blot analysis", "type": "cell-based"}, "[20]": {"system": "Mus musculus", "test": "Antiinflammatory activity against DSS-induced ulcerative colitis C57BL/6J mouse model assessed as increase in […] protein level in colon at 15 mg/kg, po administered for 8 days by Western blot analysis", "type": "functional, organism-based", "conditions": "time 8.0 day"}, "[21]": {"system": "RAW264.7", "test": "Antiinflammatory activity in LPS-induced mouse RAW264.7 cells assessed as inhibition of IL-6 production at 20 uM by ELISA", "type": "functional, cell-based"}, "[22]": {"system": "Mus musculus", "test": "Antiinflammatory activity against DSS-induced ulcerative colitis C57BL/6J mouse model assessed as reduction in TNF-alpha mRNA expression level in colon at 15 mg/kg, po administered for 8 days by qRT-PCR analysis", "type": "functional, organism-based", "conditions": "time 8.0 day"}, "[23]": {"system": "Mus musculus", "test": "Antiinflammatory activity against DSS-induced ulcerative colitis C57BL/6J mouse model assessed as reduction in DAI score at 15 mg/kg, po administered for 8 days", "type": "functional, organism-based", "conditions": "time 8.0 day"}, "[24]": {"system": "RAW264.7", "test": "Antiinflammatory activity in LPS-induced mouse RAW264.7 cells assessed as reduction in Ccl7 gene expression by heat map analysis", "type": "functional, cell-based"}, "[25]": {"system": "RAW264.7", "test": "Antiinflammatory activity in LPS-induced mouse RAW264.7 cells assessed as reduction in IL-6 gene expression by heat map analysis", "type": "functional, cell-based"}, "[26]": {"system": "Mus musculus", "test": "Antiinflammatory activity against DSS-induced ulcerative colitis C57BL/6J mouse model assessed as increase in OCCLUDIN protein level in colon at 15 mg/kg, po administered for 8 days by Western blot analysis", "type": "functional, organism-based", "conditions": "time 8.0 day"}, "[27]": {"system": "RAW264.7", "test": "Antiinflammatory activity in LPS-induced mouse RAW264.7 cells assessed as reduction in Ccl2 gene expression by heat map analysis", "type": "functional, cell-based"}, "[28]": {"molecular_target": "c-Jun N-terminal kinase (Mus musculus) (UniProt Q91Y86+Q9WTU6+Q61831)", "sequence (Q61831 whole entry, looked up)": "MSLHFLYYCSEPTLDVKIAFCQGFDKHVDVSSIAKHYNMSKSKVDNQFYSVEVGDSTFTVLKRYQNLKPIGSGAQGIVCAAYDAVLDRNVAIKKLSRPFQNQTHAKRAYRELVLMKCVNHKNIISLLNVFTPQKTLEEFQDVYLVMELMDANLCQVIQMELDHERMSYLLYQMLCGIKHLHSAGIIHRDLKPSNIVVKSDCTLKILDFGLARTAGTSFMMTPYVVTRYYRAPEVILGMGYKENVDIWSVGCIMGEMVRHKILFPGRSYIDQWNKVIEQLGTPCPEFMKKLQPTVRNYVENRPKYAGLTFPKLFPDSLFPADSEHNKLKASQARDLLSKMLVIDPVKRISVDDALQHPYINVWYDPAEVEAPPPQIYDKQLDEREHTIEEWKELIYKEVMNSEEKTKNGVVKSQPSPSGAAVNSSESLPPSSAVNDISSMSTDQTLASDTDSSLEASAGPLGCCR", "sequence (Q91Y86 whole entry, looked up)": "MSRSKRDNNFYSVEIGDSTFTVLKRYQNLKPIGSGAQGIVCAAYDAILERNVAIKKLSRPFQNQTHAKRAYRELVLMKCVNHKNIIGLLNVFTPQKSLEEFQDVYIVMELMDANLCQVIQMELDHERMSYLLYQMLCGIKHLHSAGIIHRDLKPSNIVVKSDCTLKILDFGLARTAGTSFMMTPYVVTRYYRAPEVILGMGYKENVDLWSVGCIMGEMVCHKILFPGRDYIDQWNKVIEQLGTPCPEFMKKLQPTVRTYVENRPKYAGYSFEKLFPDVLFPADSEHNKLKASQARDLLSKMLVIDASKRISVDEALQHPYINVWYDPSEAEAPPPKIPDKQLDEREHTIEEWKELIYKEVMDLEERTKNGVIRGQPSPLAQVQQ", "sequence (Q9WTU6 whole entry, looked up)": "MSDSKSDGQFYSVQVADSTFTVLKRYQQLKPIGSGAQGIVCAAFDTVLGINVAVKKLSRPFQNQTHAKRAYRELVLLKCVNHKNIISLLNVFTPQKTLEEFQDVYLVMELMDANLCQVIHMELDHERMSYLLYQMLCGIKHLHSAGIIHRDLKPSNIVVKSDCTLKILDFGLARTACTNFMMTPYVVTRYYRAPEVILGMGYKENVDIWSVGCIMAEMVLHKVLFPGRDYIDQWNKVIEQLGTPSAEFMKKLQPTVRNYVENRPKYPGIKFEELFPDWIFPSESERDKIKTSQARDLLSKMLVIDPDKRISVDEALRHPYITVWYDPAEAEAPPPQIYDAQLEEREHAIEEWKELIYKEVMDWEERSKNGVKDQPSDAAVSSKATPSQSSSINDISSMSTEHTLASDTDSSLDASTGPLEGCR", "test": "Inhibition of JNK phosphorylation in LPS-induced mouse RAW264.7 cells at 20 uM by Western blot analysis", "type": "cell-based"}, "[29]": {"system": "RAW264.7", "test": "Antiinflammatory activity in LPS-induced mouse RAW264.7 cells assessed as reduction in iNOS mRNA expression level at 20 uM by qRT-PCR analysis", "type": "functional, cell-based"}, "[30]": {"system": "Mus musculus", "test": "Antiinflammatory activity against DSS-induced ulcerative colitis C57BL/6J mouse model assessed as reduction in IL-1beta mRNA expression level in colon at 15 mg/kg, po administered for 8 days by qRT-PCR analysis", "type": "functional, organism-based", "conditions": "time 8.0 day"}, "[31]": {"system": "RAW264.7", "test": "Antiinflammatory activity in LPS-induced mouse RAW264.7 cells assessed as reduction in IL-6 mRNA expression level at 20 uM by qRT-PCR analysis", "type": "functional, cell-based"}, "[32]": {"system": "Mus musculus", "test": "Antiinflammatory activity against DSS-induced ulcerative colitis C57BL/6J mouse model assessed as reduction in Ccl2 mRNA expression level in colon at 15 mg/kg, po administered for 8 days by qRT-PCR analysis", "type": "functional, organism-based", "conditions": "time 8.0 day"}, "[33]": {"system": "Mus musculus", "test": "Effect on DSS-induced body weight loss in ulcerative colitis male C57BL/6J mouse model at 100 mg/kg, po administered for 8 days", "type": "functional, organism-based", "conditions": "time 8.0 day"}},
  "note": "Activity calls are given as the source filed them. No cut-off for these calls is given here.",
  "data": [
    {"smiles": "C=C1C(=O)O[C@]2(C)CC[C@@H]1C[C@@H]1O[C@@]1(C)CC/C=C(\\C)CCC2=O", "values": [
      {"measurement": "IC50", "setting": "[1]", "value": 900, "unit": "nM"},
      {"measurement": "Activity", "setting": "[2]", "value": "Active"},
      {"measurement": "Activity", "setting": "[3]", "value": "Active"},
      {"measurement": "Activity", "setting": "[4]", "value": "inactive"},
      {"measurement": "Activity", "setting": "[5]", "value": "Active"},
      {"measurement": "inhibition", "setting": "[6]", "value": "Active"},
      {"measurement": "Activity", "setting": "[7]", "value": "Active"},
      {"measurement": "viability at 24 h, 20 µM", "setting": "[8]", "value": 82.7, "unit": "%"},
      {"measurement": "inhibition", "setting": "[9]", "value": "Active"},
      {"measurement": "Activity", "setting": "[10]", "value": "Active"},
      {"measurement": "Activity", "setting": "[11]", "value": "Active"},
      {"measurement": "inhibition", "setting": "[12]", "value": "Active"},
      {"measurement": "inhibition at 20 µM", "setting": "[13]", "value": 134, "unit": "%"},
      {"measurement": "Activity", "setting": "[14]", "value": "Active"},
      {"measurement": "Activity", "setting": "[15]", "value": "Active"},
      {"measurement": "Activity", "setting": "[16]", "value": "Active"},
      {"measurement": "Activity", "setting": "[17]", "value": "Active"},
      {"measurement": "Activity", "setting": "[18]", "value": "Active"},
      {"measurement": "inhibition", "setting": "[19]", "value": "inactive"},
      {"measurement": "Activity", "setting": "[20]", "value": "Active"},
      {"measurement": "Activity", "setting": "[21]", "value": "Active"},
      {"measurement": "Activity", "setting": "[22]", "value": "Active"},
      {"measurement": "Activity", "setting": "[23]", "value": "Active"},
      {"measurement": "Activity", "setting": "[24]", "value": "Active"},
      {"measurement": "Activity", "setting": "[25]", "value": "Active"},
      {"measurement": "Activity", "setting": "[26]", "value": "Active"},
      {"measurement": "Activity", "setting": "[27]", "value": "Active"},
      {"measurement": "inhibition", "setting": "[28]", "value": "Active"},
      {"measurement": "Activity", "setting": "[29]", "value": "Active"},
      {"measurement": "Activity", "setting": "[30]", "value": "Active"},
      {"measurement": "Activity", "setting": "[31]", "value": "Active"},
      {"measurement": "Activity", "setting": "[32]", "value": "Active"}
    ]},
    {"smiles": "Nc1ccc(O)c(C(=O)O)c1", "values": [
      {"measurement": "Activity", "setting": "[33]", "value": "inactive"}
    ]}
  ]
}
